Reference: patent EP0094644A1, “Utilization of a cholecalciferol derivative” (F. HOFFMANN-LA ROCHE & CO. Aktiengesellschaft, priority 1982, dated 1983)

Assays:
Type in all cases: in vivo
Weissen Leghorn-Küken [1] = assay: Intestinal calcium absorption in chicks (serum 45Ca); details: for Serum ^45Ca: serum 45 min after isotope
Description: b) Intestinale Calcium-Absorption bei Küken
Weissen Leghorn-Küken wird während 21 Tagen unter UV-freier Bestrahlung eine Vitamin D-arme Diät gegeben. Eine Einzeldosis der Testverbindung, gelöst in Propylenglykol, wird den Tieren oral verabreicht. Danach werden zu verschiedenen Zeitpunkten 2 µCi ^45 Ca (Chlorid) oral verabreicht und die Serumradioaktivität 45 Minuten nach Verabreichung des Isotops gemessen. In jeder Versuchsperiode werden Kontrolltiere verwendet, denen nur das Vehikel verabreicht wird. In jeder Behandlungsgruppe und jeder Kontrollgruppe werden 10 oder 11 Küken verwendet.

Weissen Leghorn-Küken [2] = assay: Antirachitic activity in chicks (tibia ash weight); details: for Mittleres Tibiaaschengewicht: 21 days, vitamin D-deficient diet, vehicle control 120,7 ± 5,9
Description: a) Antirachitische Aktivität
Weissen Leghorn-Küken wird unter UV-freier Beleuchtung eine Vitamin D-arme, 1% Calcium und 0,7% Phosphor enthaltende Diät gegeben. Die in Propylenglykol gelöste Testverbindung wird während 21 Tagen den am Anfang des Versuchs 1 oder 2 Tage alten Küken oral verabreicht. Kontrolltiere werden mit dem Vehikel behandelt. Die Küken werden am Tag nach dem letzten Behandlungstag seziert und das Tibiaaschengewicht wird ermittelt. Es werden 9 oder 10 Küken für jede Behandlungsgruppe und für die Kontrollgruppe verwendet. Die mittleren Tibiaaschengewichte ausgedrückt in mg sind in der nachfolgenden Tabelle I angegeben.

[3] = system: Männliche Charles River Ratten; assay: Prevention of EHDP-induced mineralisation block in rats (epiphyseal plate width); details: for Mittlere Breite der Epiphysenplatte: 10 days with EHDP 2 mg/Ratte s.c., EHDP alone 1182 ± 51, no EHDP 440 ± 2
Description: c) Verhütung der durch EHDP-induzierten Blockierung der Mineralisierung bei Ratten
Männliche Charles River Ratten werden 10 Tage mit Dinatrium-äthan-1-hydroxy-1,1-diphosphonat (EHDP) behandelt. Die Verbindung wird in destilliertem Wasser in einer Konzentration von 2 mg/0,2 ml/Ratte jeden Tag subcutan verabreicht. Die fluorierte Verbindung wird in Propylenglykol jeden Tag oral verabreicht. Am Tag nach der letzten Behandlung werden die Ratten seziert und deren Tibia durch Silberimprägnierung der Knochensalze behandelt. Die Breite der Epiphysenplatte wird mit einem Mikroskop gemessen. Zur Ermittlung der Aktivität wird die dosisabhängige Verengerung der durch EHDP-Induktion erweiterten Epiphysenplatte gemessen. In jeder Behandlungsgruppe werden 10 Ratten verwendet. Es werden auch positive (EHDP allein) und negative (Vehikel allein) Kontrollgruppen von 10 Ratten in jedem Versuch verwendet.

[4] = 100 ng single oral dose, 24 Std., vehicle 992 ± 81
[5] = 100 ng single oral dose, 48 Std., vehicle 769 ± 90

SMILES | Serum ^45Ca (Weissen Leghorn-Küken [1]; [4]) | Serum ^45Ca (Weissen Leghorn-Küken [1]; [5]) | Serum ^45Ca (Weissen Leghorn-Küken [1]; 200 ng single oral dose, 72 Std., vehicle 647 ± 69) | Mittleres Tibiaaschengewicht (Weissen Leghorn-Küken [2]; 1 ng/Küken/Tag oral) | Mittleres Tibiaaschengewicht (Weissen Leghorn-Küken [2]; 3 ng/Küken/Tag oral) | Mittleres Tibiaaschengewicht (Weissen Leghorn-Küken [2]; 10 ng/Küken/Tag oral) | Mittleres Tibiaaschengewicht (Weissen Leghorn-Küken [2]; 30 ng/Küken/Tag oral) | antirachitische Aktivität (Weissen Leghorn-Küken [2]; summary in words of Tabelle I) | Serum ^45Ca (Weissen Leghorn-Küken [1]; 100 ng single oral dose, 72 Std., vehicle 647 ± 69) | Serum ^45Ca (Weissen Leghorn-Küken [1]; 100 ng single oral dose, 96 Std., vehicle 586 ± 70) | lang andauernde intestinale Calcium-Absorption (Weissen Leghorn-Küken [1]; duration after 100 ng Einzeldosis, oral) | Mittlere Breite der Epiphysenplatte ([3]; 1 ng/Ratte/Tag oral) | Mittlere Breite der Epiphysenplatte ([3]; 3 ng/Ratte/Tag oral) | Mittlere Breite der Epiphysenplatte ([3]; 10 ng/Ratte/Tag oral) | Mittlere Breite der Epiphysenplatte ([3]; 30 ng/Ratte/Tag oral) | Calcifizierung der Tibiaepiphysenplatte ([3]; EHDP-blocked rats, summary in words of Tabelle III)
C=C1/C(=C\C=C2/CCC[C@]3(C)[C@@H]([C@H](C)CCCC(C)(C)O)CC[C@@H]23)C[C@@H](O)C[C@@H]1O [Verbindung A, 1a,25-Dihydroxycholecalciferol, reference compound] | 1800 ± 181 cpm/0,2 ml | 1006 ± 133 cpm/0,2 ml | 710 ± 62 cpm/0,2 ml |  |  |  |  |  |  |  |  |  |  |  |  | 
C=C1/C(=C\C=C2/CCC[C@]3(C)[C@@H]([C@H](C)CCC(F)(F)C(C)(C)O)CC[C@@H]23)C[C@@H](O)C[C@@H]1O [fluorierte Verbindung, 24,24-Difluor-la,25-dihydroxycholecalciferol] | 2064 ± 170 cpm/0,2 ml | 1539 ± 99 cpm/0,2 ml |  | 111,5 ± 4,7 mg | 151,1 ± 8,2 mg | 227,1 ± 8,2 mg | 244,8 ± 7,4 mg | beträchtliche antirachitische Aktivität | 1164 ± 90 cpm/0,2 ml | 998 ± 61 cpm/0,2 ml | 96 Stunden | 839 ± 18 Mikron | 674 ± 18 Mikron | 540 ± 16 Mikron | 412 ± 9 Mikron | die Calcifizierung der Tibiaepiphysenplatte bei EHDP-blockierten Ratten bewirkt
